Experimental data from US20150119373A1, “NOVEL BETULINIC ACID DERIVATIVES AS HIV INHIBITORS” (HETERO RESEARCH FOUNDATION, priority 2012, published 2015).
Like-named read-outs stand apart in the source and are kept apart here.

What was measured:
[1] = test system: HIV-1 strain 92HT599; assay: Antiviral activity: p24 estimation in MT2 cells infected with HIV-1 strain 92HT599; type: cell-based; settings: for inhibition at 0.1 µM: read-out: Antiviral activity % inhibition 100 nM; for inhibition at 1 µM: read-out: Antiviral activity % inhibition 1000 nM
How it was run: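 Infection of MT2 cells used 10 TCID50/30000 cells, with compound present at ≤1% DMSO for ~96 h. p24 in well aliquots was quantified by kit. Percent inhibition is relative to vehicle controls.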

[2] = Cyto-toxicity assay (MTT) in MT2 cells without virus; type: cell-based; settings: human
Method: For cyto-toxicity assay the same amount of MT2 cells as in antiviral assay without virus was added to the 96 well plates. The cyto-toxicity was measured using MTT reagent in parallel with p24 estimation. The percent viability is calculated in comparison with vehicle control.

[3] = Single dose oral pharmacokinetic study in rat; type: in vivo; settings: plasma, Rat oral PK @30 mg/kg (Table 3); for half-life: read-out: t½ (converted)
Method: The test item was administered through oral route to animals (rat/mice) at 30 mg/kg dose in a suitable vehicle at 10 ml/kg dose volume. Blood samples (˜50 uL at each time point) were collected from retro-orbital plexus using K3 EDTA as anticoagulant in eppendorf tubes at defined time intervals under light ether anesthesia. The samples were centrifuged at 3500×g to separate plasma and stored at −80° C. until analysis.
Sample analysis: Test samples were analyzed using LC-MS-MS after developing fit-for-purpose method for each of test compound.

[4] = Single dose oral pharmacokinetic study in mice; type: in vivo; settings: for AUC(0-inf) / Cmax / AUC(0-t) / half-life / Tmax: mouse, plasma; for half-life: read-out: t½ (converted)
How it was run: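 Mice or rats dosed orally at 30 mg/kg in a suitable vehicle (10 ml/kg). Retro-orbital blood on K3 EDTA at defined time points under light ether anaesthesia; plasma analysed by LC-MS-MS.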

[5] = Human immunodeficiency virus 1, 100 nM, MT2 cells, HIV-1 92HT599, ~96 hours, p24
[6] = Human immunodeficiency virus 1, 1000 nM, MT2 cells, HIV-1 92HT599, ~96 hours, p24
[7] = Mice oral PK @30 mg/kg (Table 4)
[8] = Mice oral PK @30 mg/kg (Table 4), read-out: AUC 0-t
[9] = Oral PK @ 30 mg/ kg dose in mice (Table 6)
[10] = Oral PK @ 30 mg/ kg dose in mice (Table 6), read-out: AUCt
[11] = Human immunodeficiency virus 1, MT2, 96 h

Structure (SMILES) | inhibition at 0.1 µM [1, 5] | inhibition at 1 µM [1, 6] | viability at 100 nM [2] | viability at 1000 nM [2] | Tlast [4, 9] | AUC(0-inf) [4, 9] | Cmax [4, 9] | Tmax [4, 9] | AUC(0-t) [4, 10] | further results
C=C(C)[C@@H]1CC[C@]2(C(=O)O)CC[C@]3(C)[C@H](CC[C@@H]4[C@@]5(C)CC[C@H](OC(=O)[C@H]6[C@@H](CC(=O)O)C6(C)C)C(C)(C)[C@@H]5CC[C@]43C)[C@@H]12 [Compound 1, (1R,3aS,5aR,5bR,7aR,9S,11aR,11bR,13aR,13bR)-9-((1S,3R)-3-(carboxymethyl)-2,2-dimethylcyclopropanecarbonyloxy)-5a,5b,8,8,11a-pentamethyl-1-(prop-1-en-2-yl)icosahydro-1H-cyclopenta[a]chrysene-3a-carboxylic acid] | 95% | 100% | 96% | 92% | – | – | – | – | – | AUC(0-inf) [3]: 3.23 µg·h/mL; AUC(0-t) [3]: 3.12 µg·h/mL; Cmax [3]: 1220 ng/mL; half-life [3]: 1.53 h; AUC(0-inf) [4, 7]: 36.7 µg·h/mL; Cmax [4, 7]: 8790 ng/mL; AUC(0-t) [4, 8]: 35.9 µg·h/mL; half-life [4, 7]: 6.23 h
CC(C)(CC(=O)O[C@H]1CC[C@]2(C)[C@H]3CC[C@@H]4[C@H]5[C@H](C6(C)CC6)CC[C@]5(C(=O)N5CCOCC5)CC[C@@]4(C)[C@]3(C)CC[C@H]2C1(C)C)C(=O)O [Example 27, 2,2-dimethyl-4-oxo-4-(((1R,3aS,5aR,5bR,7aR,9S,11aR,1bR,13aR,13bR)-5a,5b,8,8,11a-pentamethyl-1-(1-methylcyclopropyl)-3a-(morpholine-4-carbonyl)icosahydro-1H-cyclopenta[a]chrysen-9-yl)oxy)butanoic acid] | 94% | 88% | 100% | 94% | 48 h | 106 µg·h/mL | 7000 ng/mL | 3.5 h | 101 µg·h/mL | –
CC(C)(CC(=O)O[C@H]1CC[C@]2(C)[C@H]3CC[C@@H]4[C@H]5[C@H](C6(C)CC6)CC[C@]5(C(=O)N[C@@H]5C[C@H](C(=O)N6CCCCC6)C5(C)C)CC[C@@]4(C)[C@]3(C)CC[C@H]2C1(C)C)C(=O)O [Example 4, 4-((1R,3aS,5aR,5bR,7aR,9S,11aR,11bR,13aR,13bR)-3a-((1R,3S)-2,2-dimethyl-3-(piperidine-1-carbonyl)cyclobutylcarbamoyl)-5a,5b,8,8,11a-pentamethyl-1-(1-methylcyclopropyl)icosahydro-1H-cyclopenta[a]chrysen-9-yloxy)-2,2-dimethyl-4-oxobutanoicacid] | 98% | 98% | 82% | 86% | – | – | – | – | – | AUC(0-inf) [3]: 22.6 µg·h/mL; AUC(0-t) [3]: 22.3 µg·h/mL; Cmax [3]: 5920 ng/mL; half-life [3]: 4.44 h; AUC(0-inf) [4, 7]: 155 µg·h/mL; Cmax [4, 7]: 9780 ng/mL; AUC(0-t) [4, 8]: 138 µg·h/mL; half-life [4, 7]: 14.5 h
CC1([C@@H]2CC[C@]3(C(=O)N4CCN(CCCN5CCOCC5)CC4)CC[C@]4(C)[C@H](CC[C@@H]5[C@@]6(C)CC[C@H](OC(=O)[C@H]7C[C@@H](C(=O)O)C7(C)C)C(C)(C)[C@@H]6CC[C@]54C)[C@@H]23)CC1 [Example 34] | 100% | 100% | 100% | 91% | 48 h | 240 µg·h/mL | 9200 ng/mL | 6.5 h | 214 µg·h/mL | –
[2H]C([2H])([2H])C(CC(=O)O[C@H]1CC[C@]2(C)[C@H]3CC[C@@H]4[C@H]5[C@H](C(=C)C)CC[C@]5(C(=O)N5CCN(CC)CC5)CC[C@@]4(C)[C@]3(C)CC[C@H]2C1(C)C)(C(=O)O)C([2H])([2H])[2H] [Example 25, 4-(((1R,3aS,5aR,5bR,7aR,9S,11aR,11bR,13aR,13bR)-3a-(4-ethylpiperazine-1-carbonyl)-5a,5b,8,8,11a-pentamethyl-1-(prop-1-en-2-yl)icosahydro-1H-cyclopenta[a]chrysen-9-yl)oxy)-2,2-bis(methyl-d3)-4-oxobutanoic acid] | 100% | 100% | 100% | 84% | 48 h | 122 µg·h/mL | 6200 ng/mL | 4.5 h | 108 µg·h/mL | –
COC1CCN(C(=O)[C@]23CC[C@@H](C4(C)CC4)[C@@H]2[C@H]2CC[C@@H]4[C@@]5(C)CC[C@H](OC(=O)[C@H]6C[C@@H](C(=O)O)C6(C)C)C(C)(C)[C@@H]5CC[C@@]4(C)[C@]2(C)CC3)CC1 [Example 29] | – | – | – | – | 48 h | – | 11700 ng/mL | 16 h | 428 µg·h/mL | inhibition at 0.1 µM [1, 11]: 95%; inhibition at 1 µM [1, 11]: 99%; viability at 100 nM ([2]; 100 nM, MT2 cells, MTT, read-out: Cytotoxicity % viability 100 nM): 81%; viability at 1000 nM ([2]; 1000 nM, MT2 cells, MTT, read-out: Cytotoxicity % viability 1000 nM): 77%
[2H]C([2H])([2H])C(CC(=O)O[C@H]1CC[C@]2(C)[C@H]3CC[C@@H]4[C@H]5[C@H](C6(C)CC6)CC[C@]5(C(=O)N5CCN(CC)CC5)CC[C@@]4(C)[C@]3(C)CC[C@H]2C1(C)C)(C(=O)O)C([2H])([2H])[2H] [Example 30] | 97% | 99% | 83% | 82% | 48 h | 78.5 µg·h/mL | 4700 ng/mL | 3.5 h | 67.1 µg·h/mL | –
CC1([C@@H]2CC[C@]3(C(=O)N4CCN(CCN5CCOCC5)CC4)CC[C@]4(C)[C@H](CC[C@@H]5[C@@]6(C)CC[C@H](OC(=O)[C@H]7C[C@@H](C(=O)O)C7(C)C)C(C)(C)[C@@H]6CC[C@]54C)[C@@H]23)CC1 [Example 32] | 99% | 99% | 100% | 95% | 48 h | 240 µg·h/mL | 9200 ng/mL | 6.5 h | 214 µg·h/mL | –
C=C(C)[C@@H]1CC[C@]2(C(=O)N[C@@H]3C[C@H](c4nnc(C)o4)C3(C)C)CC[C@]3(C)[C@H](CC[C@@H]4[C@@]5(C)CC[C@H](OC(=O)CC(C)(C)C(=O)O)C(C)(C)[C@@H]5CC[C@]43C)[C@@H]12 [Example 11, 4-((1R,3aS,5aR,5bR,7aR,9S,11aR,11bR,13aR,13bR)-3a-((1R,3S)-2,2-dimethyl-3-(5-methyl-1,3,4-oxadiazol-2-yl)cyclobutylcarbamoyl)-5a,5b,8,8,11a-pentamethyl-1-(prop-1-en-2-yl)icosahydro-1H-cyclopenta[a]chrysen-9-yloxy)-2,2-dimethyl-4-oxo butanoicacid] | 100% | 100% | 96% | 98% | – | – | – | – | – | AUC(0-inf) [3]: 8.16 µg·h/mL; AUC(0-t) [3]: 8.05 µg·h/mL; Cmax [3]: 1970 ng/mL; half-life [3]: 3.66 h; AUC(0-inf) [4, 7]: 138 µg·h/mL; Cmax [4, 7]: 11300 ng/mL; AUC(0-t) [4, 8]: 115 µg·h/mL; half-life [4, 7]: 3.66 h
COCCOCCN1CCN(C(=O)[C@]23CC[C@@H](C4(C)CC4)[C@@H]2[C@H]2CC[C@@H]4[C@@]5(C)CC[C@H](OC(=O)CC(C)(C)C(=O)O)C(C)(C)[C@@H]5CC[C@@]4(C)[C@]2(C)CC3)CC1 [Example 39, 4-(((1R,3aS,5aR,5bR,7aR,9S,11aR,11bR,13aR,13bR)-3a-(4-(2-(2-methoxyethoxyl)ethyl)piperazine-1-carbonyl)-5a,5b,8,8,11a-pentamethyl-1-(1-methylcyclopropyl)icosahydro-1H-cyclopenta[a]chrysen-9-yl)oxy)-2,2-dimethyl-4-oxobutanoic acid] | 97% | 99% | 83% | 88% | 48 h | 119 µg·h/mL | 7000 ng/mL | 4 h | 111 µg·h/mL | –
CC1([C@@H]2CC[C@]3(C(=O)N4CCOCC4)CC[C@]4(C)[C@H](CC[C@@H]5[C@@]6(C)CC[C@H](OC(=O)[C@H]7C[C@@H](C(=O)O)C7(C)C)C(C)(C)[C@@H]6CC[C@]54C)[C@@H]23)CC1 [Example 28, (1R,3S)-2,2-dimethyl-3-((((1R,3aS,5aR,5bR,7aR,9S,11aR,11bR,13aR,13bR)-5a,5b,8,8,11a-pentamethyl-1-(1-methylcyclopropyl)-3a-(morpholine-4-carbonyl)icosahydro-1H-cyclopenta[a]chrysen-9-yl)oxy)carbonyl)cyclobutane-1-carboxylic acid] | 98% | 99% | 81% | 78% | 48 h | 398 µg·h/mL | 4500 ng/mL | 16 h | 171 µg·h/mL | –
